Results on two compounds are retold here after US10829833B2, “Biological processing of scrap metal, household waste and/or industrial waste for the isolation of heavy metals” (B.R.A.I.N. Biotechnology Research and Information Network AG, priority 2015, dated 2020).

Experiment in all cases: Microbial growth on agar plates with different concentrations of AgNO3 or HAuCl4
Holding throughout (format): cell-based
Holding throughout (set-up): key: x = growth; (x) = weak growth
Details in all cases: agar plate

In one assay the test system is Escherichia coli. The source says:
(§1) To investigate the tolerated concentration of silver and gold, the microorganisms were propagated in liquid medium and streaked on agar plates with different concentrations of AgNO3 or HAuCl4, respectively.

A further assay concerns Xanthomonas campestris.
From the text: as §1

A further assay concerns Bacillus sphaericus.
From the text: as §1

The subject of assay [1] is Cupriavidus metallidurans.
From the text: as §1

As to `O=[N+]([O-])[O-].[Ag+]` [AgNO3], the “Microbial growth in dependence on AgNO3 concentration” value in the assay with Escherichia coli (AgNO3 2 μM), in the assay with Escherichia coli (AgNO3 10 μM), in the assay with Escherichia coli (AgNO3 20 μM), in the assay with Escherichia coli (AgNO3 50 μM), in the assay with Escherichia coli (AgNO3 100 μM) and in the assay with Xanthomonas campestris (AgNO3 2 μM) was “x” in each case. The “Microbial growth in dependence on AgNO3 concentration” value in the assay with Xanthomonas campestris (AgNO3 10 μM), with Xanthomonas campestris (AgNO3 20 μM), in the assay on Xanthomonas campestris (AgNO3 50 μM), in the assay with Xanthomonas campestris (AgNO3 100 μM), in the assay with Bacillus sphaericus (AgNO3 2 μM) and in the assay with Bacillus sphaericus (AgNO3 10 μM) was “x” throughout. The “Microbial growth in dependence on AgNO3 concentration” value (in the assay with Bacillus sphaericus (AgNO3 20 μM); in the assay with Bacillus sphaericus (AgNO3 50 μM); with Bacillus sphaericus (AgNO3 100 μM); in the assay with Bacillus sphaericus (AgNO3 150 μM); in assay [1] (AgNO3 2 μM); in assay [1] (AgNO3 10 μM)) was “x” throughout. Further, the “Microbial growth in dependence on AgNO3 concentration” value is recorded as “x” in assay [1] (AgNO3 20 μM); “x” in assay [1] (AgNO3 50 μM); “x” in assay [1] (AgNO3 100 μM); “x” in assay [1] (AgNO3 150 μM); “(x)” in assay [1] (AgNO3 200 μM).
On to `[Au+3].[Cl-].[Cl-].[Cl-].[Cl-].[H+]` [HAuCl4], for which the “Microbial growth in dependence on HAuCl4 concentration” value with Escherichia coli (HAuCl4 2 μM), in the assay with Escherichia coli (HAuCl4 20 μM), with Escherichia coli (HAuCl4 100 μM), with Escherichia coli (HAuCl4 200 μM), with Escherichia coli (HAuCl4 300 μM) and in the assay with Xanthomonas campestris (HAuCl4 2 μM) was “x” throughout. The “Microbial growth in dependence on HAuCl4 concentration” value in the assay with Xanthomonas campestris (HAuCl4 20 μM), in the assay with Xanthomonas campestris (HAuCl4 100 μM), in the assay on Xanthomonas campestris (HAuCl4 200 μM), in the assay on Xanthomonas campestris (HAuCl4 300 μM), in the assay on Bacillus sphaericus (HAuCl4 2 μM) and in the assay with Bacillus sphaericus (HAuCl4 20 μM) was “x” in each case. For the same compound, the “Microbial growth in dependence on HAuCl4 concentration” value (in the assay on Bacillus sphaericus (HAuCl4 100 μM); with Bacillus sphaericus (HAuCl4 200 μM); in assay [1] (HAuCl4 2 μM); in assay [1] (HAuCl4 20 μM); in assay [1] (HAuCl4 100 μM); in assay [1] (HAuCl4 200 μM)) was “x” each time. In addition, the “Microbial growth in dependence on HAuCl4 concentration” value in assay [1] (HAuCl4 300 μM), in assay [1] (HAuCl4 400 μM) and in assay [1] (HAuCl4 500 μM) was “x” throughout.
